Measured values published in ChEMBL document CHEMBL2176887, “Chemokine receptor antagonists” (J Med Chem, 2012).
Blank lines part the entries; values can stand above or below the compound they belong to.

Experiments:
[1] = biological target: T1, C-C chemokine receptor type 3 (Homo sapiens, UniProt P51677); experiment: Antagonist activity at human CCR3 assessed as inhibition of CCL11-induced calcium influx by cell based assay; assay type: functional
T1 sequence (P51677 whole entry): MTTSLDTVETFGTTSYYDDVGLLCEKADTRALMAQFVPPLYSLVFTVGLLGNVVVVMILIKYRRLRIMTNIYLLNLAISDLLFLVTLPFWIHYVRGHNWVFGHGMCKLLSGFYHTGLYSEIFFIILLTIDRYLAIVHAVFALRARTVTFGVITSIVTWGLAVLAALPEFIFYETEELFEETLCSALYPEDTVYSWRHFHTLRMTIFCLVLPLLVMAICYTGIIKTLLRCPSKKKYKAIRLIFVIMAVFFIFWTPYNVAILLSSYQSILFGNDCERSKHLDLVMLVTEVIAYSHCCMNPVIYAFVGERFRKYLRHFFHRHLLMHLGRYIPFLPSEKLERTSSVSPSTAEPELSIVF

Histamine H1 receptor [2] = biological target: T2, Histamine H1 receptor (Homo sapiens, UniProt P35367); experiment: Antagonist activity at histamine H1 receptor expressed in human PC3 cells inhibition of histamine-induced calcium influx by cell based assay; assay type: functional, PC-3
physchem = conditions: octanol/water
Description: Lipophilicity, log P of the compound

[3] = Oral bioavailability in monkey; assay type: ADME, organism-based, Macaca mulatta; conditions: rhesus monkey, in vivo
[4] = tested on: Human immunodeficiency virus 1; experiment: Antiviral activity against R5 tropic Human immunodeficiency virus 1; assay type: functional, organism-based
[5] = biological target: C-C chemokine receptor type 5 (Homo sapiens, UniProt P51681)
[6] = biological target: T3, C-C chemokine receptor type 1 (Homo sapiens, UniProt P32246)
T3 sequence (P32246 whole entry): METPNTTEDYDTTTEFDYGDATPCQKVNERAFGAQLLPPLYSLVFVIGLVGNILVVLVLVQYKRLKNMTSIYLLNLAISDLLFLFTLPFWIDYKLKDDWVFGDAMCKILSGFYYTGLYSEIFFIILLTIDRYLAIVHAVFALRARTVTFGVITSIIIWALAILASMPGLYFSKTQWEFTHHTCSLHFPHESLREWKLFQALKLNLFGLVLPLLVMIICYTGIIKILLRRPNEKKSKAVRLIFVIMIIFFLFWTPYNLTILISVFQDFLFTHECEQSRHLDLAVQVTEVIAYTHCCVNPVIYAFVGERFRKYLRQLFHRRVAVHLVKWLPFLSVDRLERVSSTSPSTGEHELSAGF

[7] = tested on: Human immunodeficiency virus 1; experiment: Antiviral activity against Human immunodeficiency virus 1 clinical isolate; assay type: functional, organism-based
[8] = octanol/water
Description: Lipophilicity, log P of the compound

[9] = Half life in human; assay type: ADME, organism-based; conditions: in vivo
Histamine H1 receptor [10] = biological target: T2, Histamine H1 receptor; experiment: Binding affinity to histamine H1 receptor
Thromboxane A2 receptor = biological target: T4, Thromboxane A2 receptor (Homo sapiens, UniProt P21731)
T4 sequence (P21731 whole entry): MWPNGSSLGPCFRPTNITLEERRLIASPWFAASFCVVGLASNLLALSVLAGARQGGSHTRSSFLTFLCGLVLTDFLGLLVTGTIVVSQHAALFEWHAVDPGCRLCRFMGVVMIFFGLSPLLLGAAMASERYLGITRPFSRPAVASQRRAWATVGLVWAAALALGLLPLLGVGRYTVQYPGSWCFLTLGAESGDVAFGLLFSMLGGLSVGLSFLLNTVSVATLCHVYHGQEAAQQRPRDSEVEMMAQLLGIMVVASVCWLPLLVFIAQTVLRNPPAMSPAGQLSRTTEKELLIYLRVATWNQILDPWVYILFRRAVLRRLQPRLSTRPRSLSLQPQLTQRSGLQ
Description: Binding affinity to TXA2 receptor receptor

[11] = biological target: T5, C-X-C chemokine receptor type 2 (Homo sapiens, UniProt P25025)
T5 sequence (P25025 whole entry): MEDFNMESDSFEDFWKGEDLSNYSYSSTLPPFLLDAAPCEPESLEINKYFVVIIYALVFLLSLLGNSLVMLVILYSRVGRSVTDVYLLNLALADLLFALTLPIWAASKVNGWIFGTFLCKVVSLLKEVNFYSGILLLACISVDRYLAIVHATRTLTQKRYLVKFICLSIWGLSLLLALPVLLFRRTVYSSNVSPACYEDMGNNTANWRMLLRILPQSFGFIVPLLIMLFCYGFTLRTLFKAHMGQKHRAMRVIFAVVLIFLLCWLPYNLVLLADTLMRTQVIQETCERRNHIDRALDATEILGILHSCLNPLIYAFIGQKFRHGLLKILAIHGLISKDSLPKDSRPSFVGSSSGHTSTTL
Description: Binding affinity to CXCR2

[12] = biological target: T6, C-X-C chemokine receptor type 1 (Homo sapiens, UniProt P25024)
T6 sequence (P25024 whole entry): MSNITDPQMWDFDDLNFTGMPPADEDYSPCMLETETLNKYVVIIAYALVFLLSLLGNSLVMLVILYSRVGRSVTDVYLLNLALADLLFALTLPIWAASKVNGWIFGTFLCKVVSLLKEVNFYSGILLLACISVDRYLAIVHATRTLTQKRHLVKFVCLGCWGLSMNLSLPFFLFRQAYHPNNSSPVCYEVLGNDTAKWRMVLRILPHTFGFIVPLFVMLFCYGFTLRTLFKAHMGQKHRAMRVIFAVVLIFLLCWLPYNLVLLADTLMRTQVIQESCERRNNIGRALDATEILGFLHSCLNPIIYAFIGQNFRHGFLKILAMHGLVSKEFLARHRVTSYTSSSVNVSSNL
Description: Binding affinity to CXCR1

[13] = biological target: T5, C-X-C chemokine receptor type 2; experiment: Antagonist activity at CXCR2 assessed as inhibition of neutrophil CD11b up-regulation; assay type: functional
[14] = tested on: Human immunodeficiency virus 1; experiment: Antiviral activity against Human immunodeficiency virus 1 ADA; assay type: functional, organism-based
[15] = tested on: Human immunodeficiency virus 1; experiment: Antiviral activity against CCR5-tropic HIV1; assay type: functional
[16] = biological target: T7, Muscarinic acetylcholine receptor M2 (Homo sapiens, UniProt P08172)
T7 sequence (P08172 whole entry): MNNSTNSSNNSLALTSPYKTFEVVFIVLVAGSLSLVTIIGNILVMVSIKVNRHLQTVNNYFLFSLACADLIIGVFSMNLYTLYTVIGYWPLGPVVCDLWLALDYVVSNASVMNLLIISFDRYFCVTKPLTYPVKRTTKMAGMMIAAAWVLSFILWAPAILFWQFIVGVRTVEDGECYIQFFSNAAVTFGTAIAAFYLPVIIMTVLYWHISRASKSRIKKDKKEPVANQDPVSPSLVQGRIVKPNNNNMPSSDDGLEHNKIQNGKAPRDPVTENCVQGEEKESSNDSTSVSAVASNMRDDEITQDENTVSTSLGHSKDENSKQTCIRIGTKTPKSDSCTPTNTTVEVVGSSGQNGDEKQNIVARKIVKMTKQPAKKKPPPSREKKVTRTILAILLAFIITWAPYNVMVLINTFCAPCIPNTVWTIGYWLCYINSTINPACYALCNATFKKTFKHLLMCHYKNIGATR
Description: Binding affinity to muscarinic M2 receptor

[17] = biological target: T8, Type-1 angiotensin II receptor (Homo sapiens, UniProt P30556)
T8 sequence (P30556 whole entry): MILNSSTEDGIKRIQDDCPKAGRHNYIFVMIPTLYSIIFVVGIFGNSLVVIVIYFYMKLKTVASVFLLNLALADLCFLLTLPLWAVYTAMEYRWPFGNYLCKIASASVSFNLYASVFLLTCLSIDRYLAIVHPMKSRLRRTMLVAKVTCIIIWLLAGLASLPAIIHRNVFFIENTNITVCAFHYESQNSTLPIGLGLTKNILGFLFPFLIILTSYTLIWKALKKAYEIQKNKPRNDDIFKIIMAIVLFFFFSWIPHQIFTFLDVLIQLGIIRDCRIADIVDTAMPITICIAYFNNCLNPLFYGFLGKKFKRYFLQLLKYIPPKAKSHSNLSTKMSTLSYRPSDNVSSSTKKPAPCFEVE
Description: Binding affinity to AT1 receptor

C-C chemokine receptor type 5, sequence (P51681 whole entry): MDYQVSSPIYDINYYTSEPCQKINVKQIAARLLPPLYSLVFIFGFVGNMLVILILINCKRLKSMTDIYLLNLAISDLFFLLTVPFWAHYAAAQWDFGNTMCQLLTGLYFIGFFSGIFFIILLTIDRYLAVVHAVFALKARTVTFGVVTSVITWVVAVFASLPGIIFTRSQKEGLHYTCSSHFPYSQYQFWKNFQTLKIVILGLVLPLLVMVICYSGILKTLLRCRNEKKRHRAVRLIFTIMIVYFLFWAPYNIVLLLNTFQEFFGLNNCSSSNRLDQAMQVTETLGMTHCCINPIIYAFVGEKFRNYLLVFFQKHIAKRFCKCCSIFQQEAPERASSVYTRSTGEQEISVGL
T2 sequence (P35367 whole entry): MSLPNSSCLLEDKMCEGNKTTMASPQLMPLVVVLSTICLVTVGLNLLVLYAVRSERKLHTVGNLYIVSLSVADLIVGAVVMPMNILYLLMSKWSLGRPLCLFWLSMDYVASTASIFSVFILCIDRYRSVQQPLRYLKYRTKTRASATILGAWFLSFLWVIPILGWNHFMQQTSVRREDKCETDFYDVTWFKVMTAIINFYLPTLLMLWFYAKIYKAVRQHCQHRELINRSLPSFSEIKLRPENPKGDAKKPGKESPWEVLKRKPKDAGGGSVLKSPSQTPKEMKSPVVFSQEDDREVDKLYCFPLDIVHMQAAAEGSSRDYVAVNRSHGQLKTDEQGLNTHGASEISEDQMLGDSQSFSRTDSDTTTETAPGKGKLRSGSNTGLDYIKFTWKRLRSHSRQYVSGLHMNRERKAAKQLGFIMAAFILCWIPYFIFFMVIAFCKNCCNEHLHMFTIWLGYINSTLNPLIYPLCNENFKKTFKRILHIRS

Ki [1]: 1.8 nM
Ki (Histamine H1 receptor [2]): 47 nM
Compound: Cc1ccc(C(=O)N2CCC(=CC(=O)N[C@@H]3CCN(Cc4ccc5cc(F)ccc5c4)C3)CC2)nn1

logP (physchem): 3.8
bioavailability [3]: 30%
IC50 [4]: 0.1 nM
Compound: CCCCN1C(=O)[C@@H]([C@H](O)C2CCCCC2)NC(=O)C12CCN(Cc1ccc(Oc3ccc(C(=O)O)cc3)cc1)CC2 [APLAVIROC]

Ki [6]: 5 nM
logP (physchem): 2.4
Compound: Cc1nnc(C(=O)NC(C)(C)c2nc(C(=O)NCc3ccc(F)cc3)c(O)c(=O)n2C)o1

Ki [6]: 5 nM
logP (physchem): 1.9
Compound: CC(=O)Nc1ccc(O)cc1OC[C@@](C)(O)CNC1CCN(Cc2ccc(Cl)cc2)CC1 [AZD4818]

logP (physchem): 3.6
Compound: COC[C@@H](c1ccc(C(F)(F)F)cc1)N1CCN(C2(C)CCN(C(=O)c3c(C)ncnc3C)CC2)C[C@@H]1C [VICRIVIROC]

Ki (Thromboxane A2 receptor): 15 nM
Compound: O=C(O)Cc1ccc2c(c1)/C(=C/Cn1cnc3ccccc31)c1ccccc1CO2

logP (physchem): 1
Compound: CC[C@@H](Nc1c(Nc2cccc(C(=O)N(C)C)c2O)c(=O)c1=O)c1ccc(C)o1 [NAVARIXIN ANHYDROUS]

Ki (Thromboxane A2 receptor): > 1000 nM
Compound: CN(C)C/C=C1\c2ccccc2COc2ccc(CC(=O)O)cc21

logP (physchem): 4.7
Compound: CC(C)(C)c1ccc(S(=O)(=O)Nc2ccc(Cl)cc2C(=O)c2cc[n+]([O-])cc2)cc1 [VERCIRNON]

logP (physchem): 4.2
IC50 [11]: 5.1 nM
IC50 [12]: > 10000 nM
IC50 [13]: 261 nM
Compound: O=C(Nc1ccc(Cl)c(S(=O)(=O)N2CCNCC2)c1O)Nc1cccc(F)c1Cl [ELUBRIXIN]

logP (physchem): 3.8
Compound: CCOc1ccc(-n2c([C@@H](C)N(Cc3cccnc3)C(=O)Cc3ccc(OC(F)(F)F)cc3)nc3ncccc3c2=O)cc1

Ki [5]: 66 nM
Ki [16]: 1320 nM
Compound: CC(C)(O)CC[C@H](C[C@H](O)[C@H](Cc1cccc(F)c1)NC(=O)c1cnc2ccccc2n1)C(N)=O

Ki [17]: > 10000 nM
Compound: Cc1noc(NS(=O)(=O)c2ccccc2-c2ccc(-c3ncco3)cc2)c1C

The next lines start with the compound.

Compound: CCO[C@@H]1Cc2cc(C(F)(F)F)ccc2[C@H]1N1CCN(C2(C)CCN(C(=O)c3c(C)ncnc3C)CC2)C[C@@H]1C [INCB-9471]
logP (physchem): 3.9
IC50 [5]: 3.1 nM

Compound: CCCCOCCOc1ccc(-c2ccc3c(c2)/C=C(/C(=O)Nc2ccc([S@@+]([O-])Cc4cncn4CCC)cc2)CCCN3CC(C)C)cc1 [CENICRIVIROC]
EC50 [7]: 0.061 nM
logP [8]: 10.2
half-life [9]: 35 h

Compound: O=C(O)Cc1ccc2c(c1)/C(=C/CN1CCCC(Cc3ccccc3)C1)c1ccccc1CO2 (stereo not drawn)
Ki (Histamine H1 receptor [10]): 20 nM
Ki (Thromboxane A2 receptor): 740 nM

Compound: NCC1CCCN(C(=O)c2ccc3c(c2)C(C(=O)NC2CCN(C/C4=C/CCCCCCC4)CC2)c2ccccc2O3)C1 (stereo not drawn)
Ki [6]: 1.8 nM

Compound: Cc1nnc(C(C)C)n1[C@@H]1C[C@H]2CC[C@@H](C1)N2CC[C@H](NC(=O)C1CCC(F)(F)CC1)c1ccccc1 [MARAVIROC]
logP (physchem): 4.4

Compound: Cc1ccc(S(=O)(=O)NC(=O)N2CCC(N3CCC(Oc4ccc(Cl)c(Cl)c4)CC3)CC2)cc1
logP (physchem): 3.8

Compound: CCO/N=C(\c1ccc(Br)cc1)C1CCN(C2(C)CCN(C(=O)c3c(C)cc[n+]([O-])c3C)CC2)CC1 [ANCRIVIROC]
Ki [5]: 2 nM
IC50 [14]: 0.6 nM

Compound: Cc1nnc(C(C)C)n1[C@H]1C[C@H]2CC[C@@H](C1)N2CC[C@H](NC(=O)C1CCC(F)(F)CC1)c1ccccc1 [MARAVIROC]
IC90 [15]: 2 nM

Compound: c1cc(CN2CCCNCCNCCCNCC2)ccc1CN1CCCNCCNCCCNCC1 [PLERIXAFOR]
logP [8]: -0.4

Compound: CCN(C(=O)Cc1ccc(S(C)(=O)=O)cc1)C1CCN(CC[C@@H](c2cc(F)cc(F)c2)C2CCC(S(C)(=O)=O)CC2)CC1 (stereo partly drawn) [AZD-5363]
logP (physchem): 3.1
IC50 [5]: 0.17 nM
